Measurements as given in patent US20240368125A1, “NOVEL PYRAZINYL-TRIAZOLE COMPOUNDS AS PESTICIDES” (Bayer Aktiengesellschaft, priority 2021, published 2024).

What was measured:
Format in all cases: in vivo
[1] = tested on: adult engorged female ticks (Rhipicephalus microplus); test: Rhipicephalus (Boophilus) microplus injection test; settings: 4 μg/tick, after 7 days
Protocol: Rhipicephalus (Boophilus) Microplus—Injection Test
(§1) Solvent: Dimethyl Sulfoxide
To produce a suitable preparation of active compound, 10 mg of active compound are dissolved in 0.5 mL solvent, and the concentrate is diluted with solvent to the desired concentration.
Five adult engorged female ticks (Rhipicephalus microplus) are injected with 1 μL compound solution into the abdomen. The ticks are transferred into replica plates and incubated in a climate chamber.
After 7 days egg deposition of fertile eggs is monitored. Eggs where fertility is not visible are stored in a climate chamber till hatching after about 42 days. An efficacy of 100% means all eggs are infertile; 0% means all eggs are fertile.

[2] = tested on: adult unfed cat fleas (Ctenocephalides felis); test: Ctenocephalides felis oral test; settings: 48 h, 100 ppm in citrated cattle blood, after 2 days
Protocol: Ctenocephalides felis—Oral Test
as §1
To produce a suitable preparation of active compound, 10 mg of active compound are dissolved in 0.5 mL solvent, and the concentrate is diluted with citrated cattle blood to the desired concentration.
Approximately 20 adult unfed cat fleas (Ctenocephalides felis) are placed in a flea chamber whose top and bottom is covered with gauze. A chamber whose bottom is sealed with parafilm, is filled with the blood-compound solution and placed on top of the flea chamber, so that the fleas can suck the blood. The blood chamber is heated to 37° C. whereas the flea chamber is kept at room temperature.
After 2 days mortality in % is determined. 100% means all the fleas have been killed; 0% means none of the fleas have been killed.

[3] = tested on: larvae of the banded cucumber beetle (Diabrotica balteata); test: Diabrotica balteata spray test; settings: Diabrotica balteata, 168 h; 100 g/ha (=32 μg/well), wheat seeds, after 7 days; read-out: efficacy (seedlings grown)
How it was run: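 Germinated wheat seedlings (5 per well, on agar) sprayed with compound in acetone/DMF with emulsifier-containing water, then infested with 10–20 Diabrotica balteata larvae. Efficacy (%) scored after 7 days from seedling growth: 100% = growth as untreated uninfested control, 0% = no seedlings grown.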

[4] = tested on: brown planthopper (Nilaparvata lugens); test: Nilaparvata lugens spray test; settings: Nilaparvata lugens, in Oryza sativa, 96 h
How it was run: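 Compound dissolved in acetone/dimethylformamide and diluted in water with 1000 ppm alkylarylpolyglycol ether emulsifier. Rice plants sprayed at the test concentration, then infested with brown planthopper; % mortality read after 4 days (100% = all killed, 0% = none).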

[5] = tested on: adult mosquitoes Aedes aegypti strain MONHEIM; test: Aedes aegypti test (AEDSAE surface treatment & contact assay); settings: 24 hours after contact, read-out: efficacy (mortality); for mortality at 4 mg/m2: surface concentration 4 mg/m^2, 30 min exposure; for mortality at 20 mg/m2: surface concentration 20 mg/m^2, 30 min exposure
Protocol: Aedes aegypti Test (AEDSAE Surface Treatment & Contact Assay
(§2) Solvent: Aceton+2000 ppm rapeseed oil methyl ester (RME)
(§3) In order to produce a sufficient, active ingredient containing solution it is necessary to solve the test compound in the solvent-mix (acetone at 2 mg/ml/RME 2000 ppm). This solution is pipetted onto a glazed tile and after evaporation of the acetone, adult mosquitoes of the species Aedes aegypti strain MONHEIM are placed onto the dried surface. The exposure time is 30 minutes. Mortality in percent (%) is determined 24 hours after contact of the insects to the treated surface. 100% mortality means that all tested insects are dead, whereas 0% means that no insect died.

[6] = tested on: adult mosquitoes Culex quinquefasciatus strain P00; test: Culex quinquefasciatus test (CULXFA surface treatment & contact assay); settings: 24 hours after contact, read-out: efficacy (mortality); for mortality at 20 mg/m2: surface concentration 20 mg/m^2, 30 min exposure; for mortality at 4 mg/m2: surface concentration 4 mg/m^2, 30 min exposure
Protocol: Culex quinquefasciatus Test (CULXFA Surface Treatment & Contact Assay
as §2
as §3, with “Culex quinquefasciatus” for “Aedes aegypti”, “P00” for “MONHEIM”

[7] = tested on: adult flies Musca domestica strain WHO-N; test: Musca domestica test (MUSCDO surface treatment & contact assay); settings: 24 hours after contact, read-out: efficacy (mortality); for mortality at 20 mg/m2: surface concentration 20 mg/m^2, 30 min exposure; for mortality at 4 mg/m2: surface concentration 4 mg/m^2, 30 min exposure
Protocol: Musca domestica Test (MUSCDO Surface Treatment & Contact Assay
as §2
as §3, with “flies” for “mosquitoes”, “Musca domestica” for “Aedes aegypti”, “WHO-N” for “MONHEIM”

[8] = tested on: larvae of the southern green stink bug (Nezara viridula); test: Nezara viridula spray test; settings: Nezara viridula, in Hordeum vulgare, 96 h
How it was run: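 Barley plants sprayed with compound in acetone/DMF diluted in water with 1000 ppm alkylarylpolyglycol ether emulsifier, then infested with N. viridula larvae. Mortality (%) scored after 4 days; 100% means all bugs killed.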

## C[C@H](NC(=O)c1cc(OC(F)(F)F)cc(C2CC2)c1)c1ncnn1-c1cnc(C(=O)N(C)C)cn1 [Example I-002]
[1]
  efficacy (infertile eggs): 100%
[2]
  mortality at 100 ppm: 100%
[3]
  pest or weed control at 32 µg/disc, 100 g/ha: 100%
[4]
  mortality at 500 g/ha: 90%
[5]
  mortality at 4 mg/m2: 80 to 100%
  mortality at 20 mg/m2: 80 to 100%
[6]
  mortality at 20 mg/m2: 80 to 100%
[7]
  mortality at 20 mg/m2: 80 to 100%

## C[C@H](NC(=O)c1cc(C(F)(F)F)cc(C(F)(F)F)c1)c1ncnn1-c1cnc(C(=O)N(C)C2CC2)cn1 [Example I-007]
[1]
  efficacy (infertile eggs): 100%
[2]
  mortality at 100 ppm: 100%
[3]
  pest or weed control at 32 µg/disc, 100 g/ha: 100%
[4]
  mortality at 500 g/ha: 100%
[5]
  mortality at 4 mg/m2: 80 to 100%
  mortality at 20 mg/m2: 80 to 100%
[6]
  mortality at 4 mg/m2: 80 to 100%
  mortality at 20 mg/m2: 80 to 100%
[7]
  mortality at 4 mg/m2: 80 to 100%
  mortality at 20 mg/m2: 80 to 100%

## C[C@H](NC(=O)c1cc(C(F)(F)F)cc(C(F)(F)F)c1)c1ncnn1-c1cnc(C(=O)N(C)CC2CC2)cn1 [Example I-008]
[1]
  efficacy (infertile eggs): 100%
[2]
  mortality at 100 ppm: 100%
[3]
  pest or weed control at 32 µg/disc, 100 g/ha: 100%
[8]
  mortality at 500 g/ha: 100%
[4]
  mortality at 500 g/ha: 100%
[5]
  mortality at 4 mg/m2: 80 to 100%
  mortality at 20 mg/m2: 80 to 100%
[6]
  mortality at 4 mg/m2: 80 to 100%
  mortality at 20 mg/m2: 80 to 100%
[7]
  mortality at 4 mg/m2: 80 to 100%
  mortality at 20 mg/m2: 80 to 100%

## CNC(=O)c1cnc(-n2ncnc2[C@H](C)NC(=O)c2cc(C(F)(F)F)cc(C(F)(F)F)c2)cn1 [Example I-009]
[1]
  efficacy (infertile eggs): 100%
[2]
  mortality at 100 ppm: 100%
[8]
  mortality at 500 g/ha: 100%
[4]
  mortality at 500 g/ha: 100%
[5]
  mortality at 4 mg/m2: 80 to 100%
  mortality at 20 mg/m2: 80 to 100%
[6]
  mortality at 4 mg/m2: 80 to 100%
  mortality at 20 mg/m2: 80 to 100%
[7]
  mortality at 4 mg/m2: 80 to 100%
  mortality at 20 mg/m2: 80 to 100%

## CNC(=O)c1cnc(-n2ncnc2[C@H](C)NC(=O)c2cc(OC(F)(F)F)cc(C3CC3)c2)cn1 [Example I-021]
[3]
  pest or weed control at 32 µg/disc, 100 g/ha: 100%
[8]
  mortality at 500 g/ha: 100%
[4]
  mortality at 500 g/ha: 100%
[5]
  mortality at 4 mg/m2: 80 to 100%
  mortality at 20 mg/m2: 80 to 100%
[6]
  mortality at 4 mg/m2: 80 to 100%
  mortality at 20 mg/m2: 80 to 100%
[7]
  mortality at 4 mg/m2: 80 to 100%
  mortality at 20 mg/m2: 80 to 100%
